What was measured:
Test in all cases: relative viability (nuclei count vs DMSO), 5 days (fraction); higher = more cells survive
[1] = compound: CCc1cnn2c(NCc3ccc[n+]([O-])c3)cc(N3CCCC[C@H]3CCO)nc12 [Dinaciclib] + Cc1nc(Nc2ncc(C(=O)Nc3c(C)cccc3Cl)s2)cc(N2CCN(CCO)CC2)n1 [Dasatinib] (partner 0.075 µM)
How it was run: (§1)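 A single step with final 0.05% Triton X-100, 1% formaldehyde and 1 ug/ml Hoechst fixed the cells and stained nuclei 5 days after treatment. Lung cancer cell lines in 1536-well plates had been treated by pin tool the day after seeding with one drug alone or a fixed anchor-drug dose plus five library-drug doses (not always all listed) in √10 steps, and nuclei were counted on 4× images. Relative viability is the ratio of nuclei in treated wells to nuclei in vehicle wells, taken as the median of duplicate plates.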

[2] = compound: CCc1cnn2c(NCc3ccc[n+]([O-])c3)cc(N3CCCC[C@H]3CCO)nc12 [Dinaciclib] + O=C(c1cc(Cc2n[nH]c(=O)c3ccccc23)ccc1F)N1CCN(C(=O)C2CC2)CC1 [Olaparib] (partner 8 µM)
How it was run: as §1

[3] = compound: CCc1cnn2c(NCc3ccc[n+]([O-])c3)cc(N3CCCC[C@H]3CCO)nc12 [Dinaciclib] + Cc1cc(Nc2cc(N3CCN(C)CC3)nc(Sc3ccc(NC(=O)C4CC4)cc3)n2)n[nH]1 [Tozasertib] (partner 0.1 µM)
How it was run: as §1

[4] = compound: CCc1cnn2c(NCc3ccc[n+]([O-])c3)cc(N3CCCC[C@H]3CCO)nc12 [Dinaciclib] + O=C(CCCCCCC(=O)Nc1ccccc1)NO [Vorinostat] (partner 1 µM)
How it was run: as §1

[5] = compound: CCc1cnn2c(NCc3ccc[n+]([O-])c3)cc(N3CCCC[C@H]3CCO)nc12 [Dinaciclib] + C[C@]1(O)C[C@@H](c2nc(-c3ccc4ccc(-c5ccccc5)nc4c3)c3c(N)nccn32)C1 [Linsitinib] (partner 1 µM)
How it was run: as §1

Cell Line | relative viability ([1]; first compound 0.009487 µM) | relative viability ([1]; first compound 0.03 µM) | relative viability ([1]; first compound 0.09487 µM) | relative viability ([1]; first compound 0.3 µM) | relative viability ([2]; first compound 0.009487 µM) | relative viability ([2]; first compound 0.03 µM) | relative viability ([2]; first compound 0.09487 µM) | relative viability ([2]; first compound 0.3 µM) | relative viability ([3]; first compound 0.009487 µM) | relative viability ([3]; first compound 0.03 µM) | relative viability ([3]; first compound 0.09487 µM) | relative viability ([3]; first compound 0.3 µM) | relative viability ([4]; first compound 0.009487 µM) | relative viability ([4]; first compound 0.03 µM) | relative viability ([4]; first compound 0.09487 µM) | relative viability ([4]; first compound 0.3 µM) | relative viability ([5]; first compound 0.009487 µM) | relative viability ([5]; first compound 0.03 µM) | relative viability ([5]; first compound 0.09487 µM) | relative viability ([5]; first compound 0.3 µM)
HCC-15 | 0.424 | 0.086 | 0.0767 | 0.095 | 0.494 | 0.199 | 0.106 | 0.119 | 0.407 | 0.0586 | 0.0549 | 0.0646 | 0.715 | 0.355 | 0.121 | 0.124 | 0.76 | 0.171 | 0.113 | 0.101
HCC-44 |  |  |  |  | 1.07 | 0.556 | 0.361 | 0.272 | 0.594 | 0.204 | 0.206 | 0.184 | 1.24 | 1.04 | 0.368 | 0.319 | 0.461 | 0.119 | 0.122 | 0.103
HCC-78 | 0.379 | 0.181 | 0.148 | 0.162 | 0.713 | 0.198 | 0.168 | 0.202 | 0.345 | 0.282 | 0.144 | 0.138 | 0.457 | 0.372 | 0.229 | 0.186 | 0.556 | 0.348 | 0.116 | 0.14
HCC-366 | 0.597 | 0.14 | 0.0199 | 0.033 | 0.174 | 0.032 | 0.0277 | 0.0241 | 0.136 | 0.0294 | 0.0259 | 0.0198 | 0.193 | 0.0415 | 0.0286 | 0.0247 | 0.543 | 0.0298 | 0.0149 | 0.0167
HCC-827 | 0.285 | 0.221 | 0.135 | 0.184 | 0.631 | 0.123 | 0.116 | 0.117 | 0.417 | 0.251 | 0.101 | 0.117 | 1 | 0.747 | 0.123 | 0.159 | 0.951 | 0.747 | 0.181 | 0.147
HOP-62 | 0.662 | 0.33 | 0.0666 | 0.0723 | 0.295 | 0.0722 | 0.0964 | 0.0667 | 0.293 | 0.13 | 0.0833 | 0.075 | 0.543 | 0.0919 | 0.0742 | 0.0609 | 1.01 | 0.203 | 0.0716 | 0.0565
LC-2-ad | 0.279 | 0.149 | 0.149 | 0.175 | 0.495 | 0.162 | 0.13 | 0.133 | 0.363 | 0.242 | 0.19 | 0.219 | 0.685 | 0.17 | 0.108 | 0.108 | 0.745 | 0.0866 | 0.0684 | 0.0797

— the supplement of paper PMC10307832
